Among the data in ChEMBL document CHEMBL1177776, “Novel coumarin derivatives as potential antidyslipidemic agents” (2010) are inhibition and Activity values, retold here.

Common to all, as to assay type: functional
Test [1] is described as follows: Antioxidant activity assessed as inhibition lipid peroxidation at 200 ug/ml by spectrophotometry.
Test [2] deals with Rattus norvegicus. Briefly: Antidyslipidemic activity against triton-induced hyperlipidemia in Charles Foster rat assessed as reduction in total cholesterol level at 100 mg/kg, po after 18 hrs by spectrophotometry relative to control. Set-up: scale not given: the % may be the effect or the level left.
For test [3], the system named is Rattus norvegicus. Kind of test: Antidyslipidemic activity against triton-induced hyperlipidemia in Charles Foster rat assessed as reduction in phospholipid level at 100 mg/kg, po after 18 hrs by spectrophotometry relative to control. The arrangement: scale not given: the % may be the effect or the level left.
For test [4], the system named is Rattus norvegicus. Kind of test: Antidyslipidemic activity against triton-induced hyperlipidemia in Charles Foster rat assessed as reduction in triglyceride level at 100 mg/kg, po after 18 hrs by spectrophotometry relative to control. Set-up: scale not given: the % may be the effect or the level left.
Test [5] in a line: Antioxidant activity assessed as inhibition non-enzymatic reactants generated hydroxyl radical production at 200 ug/ml by spectrophotometry.
A short description of test [6]: Antioxidant activity assessed as inhibition non-enzymatic reactants generated superoxide anion at 200 ug/ml by spectrophotometry.
Test [7] can be described thus: Antioxidant activity assessed as inhibition non-enzymatic reactants generated superoxide anion at 20 ug/ml by spectrophotometry.
Test [8] can be described thus: Antioxidant activity assessed as inhibition non-enzymatic reactants generated hydroxyl radical production at 100 ug/ml by spectrophotometry.

The inhibition is the percentage by which the read-out fell short of the control. Regarding `Cc1cc(C=O)c(O)c2ccccc12`, the inhibition came to 41% in test [1], 41% in test [5] and 27% in test [6]. The Activity in the test with Rattus norvegicus [2] came to 24%; in the test on Rattus norvegicus [3], 25%; with Rattus norvegicus [4], 23%.
Turning to `Oc1ncnc2[nH]ncc12`, in test [7], the inhibition stood at 80%.
`Cc1ccc(C)c(OCCCC(C)(C)C(=O)O)c1` [GEMFIBROZIL]: the Activity with Rattus norvegicus [2] is recorded as 34%; in the test with Rattus norvegicus [3], 38%; in the test with Rattus norvegicus [4] it was 35%.
For the compound `Cc1c(C)c2c(c(C)c1O)CC[C@@](C)(CCC[C@H](C)CCC[C@H](C)CCCC(C)C)O2`, in test [8], the inhibition worked out at 47%.
Regarding `OC[C@@H](O)[C@@H](O)[C@H](O)[C@H](O)CO`, the inhibition in test [8] worked out at 52%.
Turning to `Cc1cc2cc(Cl)c(=O)oc2c2ccccc12`, the inhibition is 38% in test [1], 49% in test [5] and 32% in test [6]. For the same compound, the Activity is recorded as 27% in the test on Rattus norvegicus [2], 26% with Rattus norvegicus [3] and 26% in the test with Rattus norvegicus [4].
